Test results from publication PMC5811606, “Characterization of ^111In-labeled Glucose-Dependent Insulinotropic Polypeptide as a Radiotracer for Neuroendocrine Tumors” (Scientific Reports, 2018).
Read-outs that look alike come from different tables or passages of the source.

Experiment: Peptide dose escalation study, BHK-GIPR tumor mice
Format: in vivo, BALB/c nude mice
Settings: female, iv, total radioactivity; for tissue to tissue ratio at 4 h: BHK-GIPR tumor / blood, read-out: Tumor/Blood
Method: All animal experiments were approved by the Animal Welfare Body of the Radboud University, Nijmegen, The Netherlands and carried out in accordance with their guidelines. Six to eight weeks old, female BALB/c nude mice and C3H mice were purchased from Janvier labs (Le Genest Saint Isle, France). For all in vivo experiments, 6-8 weeks old female BALB/c nude mice were injected subcutaneously in the right shoulder with 0.2 ml of a 2.5 × 10^7 cells/ml suspension of BHK-GIPR transfected cells or with 0.2 ml of a 2.5 × 10^7 cells/ml suspension of NES2Y cells mixed with matrigel (2:1) in the right shoulder. When the tumor reached a diameter of 2-5 mm, mice were randomly divided in groups.
To determine the optimal peptide dose of [Lys^37(DTPA)]N-acetyl-GIP1-42, BHK-GIPR transfected tumor bearing BALB/c nude mice (n = 5/group) were injected intravenously with approximately 3 MBq [Lys^37(^111In-DTPA)]N-acetyl-GIP1-42 (0.05 µg) in the tail vein and were co-injected with escalating amounts of unlabeled [Lys^37(DTPA)]N-acetyl-GIP1-42 (0.05 µg – 1.95 µg), resulting in final peptide doses ranging from 0.1 to 2 µg/mouse (0.02 – 0.4 nmol/mouse) (5 groups, n = 5/group). Four hours after injection, mice were euthanized by CO2/O2 suffocation and tumors and other relevant tissues (heart, muscle, lung, spleen, pancreas, kidney, liver, stomach and duodenum) were dissected, weighed and measured in a well type gamma counter. The percentage injected dose per gram of tissue (%ID/g) was determined for each tissue.

Structure (SMILES): CC[C@H](C)[C@H](NC(=O)[C@H](CO)NC(=O)[C@H](Cc1ccc(O)cc1)NC(=O)[C@H](CC(=O)O)NC(=O)[C@H](CO)NC(=O)[C@@H](NC(=O)[C@H](Cc1ccccc1)NC(=O)[C@@H](NC(=O)CNC(=O)[C@H](CCC(=O)O)NC(=O)[C@H](C)NC(=O)[C@H](Cc1ccc(O)cc1)NC(C)=O)[C@@H](C)O)[C@@H](C)CC)C(=O)N[C@@H](C)C(=O)N[C@@H](CCSC)C(=O)N[C@@H](CC(=O)O)C(=O)N[C@@H](CCCCN)C(=O)N[C@H](C(=O)N[C@@H](Cc1c[nH]cn1)C(=O)N[C@@H](CCC(N)=O)C(=O)N[C@@H](CCC(N)=O)C(=O)N[C@@H](CC(=O)O)C(=O)N[C@@H](Cc1ccccc1)C(=O)N[C@H](C(=O)N[C@@H](CC(N)=O)C(=O)N[C@@H](Cc1c[nH]c2ccccc12)C(=O)N[C@@H](CC(C)C)C(=O)N[C@@H](CC(C)C)C(=O)N[C@@H](C)C(=O)N[C@@H](CCC(N)=O)C(=O)N[C@@H](CCCCN)C(=O)NCC(=O)N[C@@H](CCCCN)C(=O)N[C@@H](CCCCN)C(=O)N[C@@H](CC(N)=O)C(=O)N[C@@H](CC(=O)O)C(=O)N[C@@H](Cc1c[nH]c2ccccc12)C(=O)N[C@@H](CCCCNC(=O)CN(CCN(CCN(CC(=O)O)CC(=O)O)CC(=O)O)CC(=O)O)C(=O)N[C@@H](Cc1c[nH]cn1)C(=O)N[C@@H](CC(N)=O)C(=O)N[C@H](C(=O)N[C@H](C(=O)N[C@@H](CCC(N)=O)C(=O)O)[C@@H](C)O)[C@@H](C)CC)C(C)C)[C@@H](C)CC [[Lys^37(^111In-DTPA)]N-acetyl-GIP1-42, metal not drawn]
- tissue uptake at 4 h (BALB/c nude, BHK-GIPR tumor, peptide doses ≤ 0.2 µg (0.04 nmol) per mouse, 4 hours post-injection, mean ± SD, n=5, read-out: tumor uptake): 5.2 ± 1.4 %ID/g
- tissue uptake at 4 h (BALB/c nude, mouse, 0.5 ug/mouse, BHK-GIPR tumor, peptide dose 0.5 µg (0.1 nmol), 4 hours post-injection, mean ± SD, n=5, read-out: tumor uptake): 2.4 ± 0.7 %ID/g
- tissue to tissue ratio at 4 h (mouse, 0.1 ug/mouse, BHK-GIPR tumor BALB/c nude mice, i.v., peptide dose 0.1 µg, 4 h p.i., mean n=5): 143
- tissue to tissue ratio at 4 h (mouse, 0.2 ug/mouse, BHK-GIPR tumor BALB/c nude mice, i.v., peptide dose 0.2 µg, 4 h p.i., mean n=5): 110
- tissue to tissue ratio at 4 h (mouse, 0.5 ug/mouse, BHK-GIPR tumor BALB/c nude mice, i.v., peptide dose 0.5 µg, 4 h p.i., mean n=5): 52.6
- tissue to tissue ratio at 4 h (mouse, 1 ug/mouse, BHK-GIPR tumor BALB/c nude mice, i.v., peptide dose 1 µg, 4 h p.i., mean n=5): 50.3
- tissue uptake at 4 h (mouse, blood, 0.1 ug/mouse, BHK-GIPR tumor BALB/c nude mice, i.v., peptide dose 0.1 µg, 4 h p.i., mean n=5, read-out: Blood uptake): 0.033 %ID/g
- tissue uptake at 4 h (mouse, blood, 0.2 ug/mouse, BHK-GIPR tumor BALB/c nude mice, i.v., peptide dose 0.2 µg, 4 h p.i., mean n=5, read-out: Blood uptake): 0.047 %ID/g
- tissue uptake at 4 h (mouse, blood, 0.5 ug/mouse, BHK-GIPR tumor BALB/c nude mice, i.v., peptide dose 0.5 µg, 4 h p.i., mean n=5, read-out: Blood uptake): 0.047 %ID/g
- tissue uptake at 4 h (mouse, blood, 1 ug/mouse, BHK-GIPR tumor BALB/c nude mice, i.v., peptide dose 1 µg, 4 h p.i., mean n=5, read-out: Blood uptake): 0.059 %ID/g
- tissue uptake at 4 h (mouse, blood, 2 ug/mouse, BHK-GIPR tumor BALB/c nude mice, i.v., peptide dose 2 µg, 4 h p.i., mean n=5, read-out: Blood uptake): 0.066 %ID/g
- tissue uptake at 4 h (mouse, duodenum, 0.1 ug/mouse, BHK-GIPR tumor BALB/c nude mice, i.v., peptide dose 0.1 µg, 4 h p.i., mean n=5, read-out: Duodenum uptake): 0.486 %ID/g
- tissue uptake at 4 h (mouse, duodenum, 0.2 ug/mouse, BHK-GIPR tumor BALB/c nude mice, i.v., peptide dose 0.2 µg, 4 h p.i., mean n=5, read-out: Duodenum uptake): 0.573 %ID/g
- tissue uptake at 4 h (mouse, duodenum, 0.5 ug/mouse, BHK-GIPR tumor BALB/c nude mice, i.v., peptide dose 0.5 µg, 4 h p.i., mean n=5, read-out: Duodenum uptake): 0.529 %ID/g
- tissue uptake at 4 h (mouse, duodenum, 1 ug/mouse, BHK-GIPR tumor BALB/c nude mice, i.v., peptide dose 1 µg, 4 h p.i., mean n=5, read-out: Duodenum uptake): 0.75 %ID/g
- tissue uptake at 4 h (mouse, duodenum, 2 ug/mouse, BHK-GIPR tumor BALB/c nude mice, i.v., peptide dose 2 µg, 4 h p.i., mean n=5, read-out: Duodenum uptake): 0.929 %ID/g
- tissue uptake at 4 h (mouse, heart, 0.1 ug/mouse, BHK-GIPR tumor BALB/c nude mice, i.v., peptide dose 0.1 µg, 4 h p.i., mean n=5, read-out: Heart uptake): 0.133 %ID/g
- tissue uptake at 4 h (mouse, heart, 0.2 ug/mouse, BHK-GIPR tumor BALB/c nude mice, i.v., peptide dose 0.2 µg, 4 h p.i., mean n=5, read-out: Heart uptake): 0.156 %ID/g
- tissue uptake at 4 h (mouse, heart, 0.5 ug/mouse, BHK-GIPR tumor BALB/c nude mice, i.v., peptide dose 0.5 µg, 4 h p.i., mean n=5, read-out: Heart uptake): 0.163 %ID/g
- tissue uptake at 4 h (mouse, heart, 1 ug/mouse, BHK-GIPR tumor BALB/c nude mice, i.v., peptide dose 1 µg, 4 h p.i., mean n=5, read-out: Heart uptake): 0.178 %ID/g
- tissue uptake at 4 h (mouse, heart, 2 ug, BHK-GIPR tumor BALB/c nude mice, i.v., peptide dose 2 µg, 4 h p.i., mean n=5, read-out: Heart uptake): 0.173 %ID/g
- tissue uptake at 4 h (mouse, kidney, 0.1 ug/mouse, BHK-GIPR tumor BALB/c nude mice, i.v., peptide dose 0.1 µg, 4 h p.i., mean n=5, read-out: Kidney uptake): 237 %ID/g
- tissue uptake at 4 h (mouse, kidney, 0.2 ug/mouse, BHK-GIPR tumor BALB/c nude mice, i.v., peptide dose 0.2 µg, 4 h p.i., mean n=5, read-out: Kidney uptake): 265 %ID/g
- tissue uptake at 4 h (mouse, kidney, 0.5 ug/mouse, BHK-GIPR tumor BALB/c nude mice, i.v., peptide dose 0.5 µg, 4 h p.i., mean n=5, read-out: Kidney uptake): 214 %ID/g
- tissue uptake at 4 h (mouse, kidney, 1 ug/mouse, BHK-GIPR tumor BALB/c nude mice, i.v., peptide dose 1 µg, 4 h p.i., mean n=5, read-out: Kidney uptake): 287 %ID/g
- tissue uptake at 4 h (mouse, kidney, 2 ug/mouse, BHK-GIPR tumor BALB/c nude mice, i.v., peptide dose 2 µg, 4 h p.i., mean n=5, read-out: Kidney uptake): 257 %ID/g
- tissue uptake at 4 h (mouse, liver, 0.1 ug/mouse, BHK-GIPR tumor BALB/c nude mice, i.v., peptide dose 0.1 µg, 4 h p.i., mean n=5, read-out: Liver uptake): 1.6 %ID/g
- tissue uptake at 4 h (mouse, liver, 0.2 ug/mouse, BHK-GIPR tumor BALB/c nude mice, i.v., peptide dose 0.2 µg, 4 h p.i., mean n=5, read-out: Liver uptake): 1.53 %ID/g
- tissue uptake at 4 h (mouse, liver, 0.5 ug/mouse, BHK-GIPR tumor BALB/c nude mice, i.v., peptide dose 0.5 µg, 4 h p.i., mean n=5, read-out: Liver uptake): 1.55 %ID/g
- tissue uptake at 4 h (mouse, liver, 1 ug/mouse, BHK-GIPR tumor BALB/c nude mice, i.v., peptide dose 1 µg, 4 h p.i., mean n=5, read-out: Liver uptake): 1.74 %ID/g
- tissue uptake at 4 h (mouse, liver, 2 ug/mouse, BHK-GIPR tumor BALB/c nude mice, i.v., peptide dose 2 µg, 4 h p.i., mean n=5, read-out: Liver uptake): 1.83 %ID/g
- tissue uptake at 4 h (mouse, lung, 0.1 ug, BHK-GIPR tumor BALB/c nude mice, i.v., peptide dose 0.1 µg, 4 h p.i., mean n=5, read-out: Lung uptake): 0.364 %ID/g
- tissue uptake at 4 h (mouse, lung, 0.2 ug, BHK-GIPR tumor BALB/c nude mice, i.v., peptide dose 0.2 µg, 4 h p.i., mean n=5, read-out: Lung uptake): 0.518 %ID/g
- tissue uptake at 4 h (mouse, lung, 0.5 ug, BHK-GIPR tumor BALB/c nude mice, i.v., peptide dose 0.5 µg, 4 h p.i., mean n=5, read-out: Lung uptake): 0.577 %ID/g
- tissue uptake at 4 h (mouse, lung, 1 ug, BHK-GIPR tumor BALB/c nude mice, i.v., peptide dose 1 µg, 4 h p.i., mean n=5, read-out: Lung uptake): 0.608 %ID/g
- tissue uptake at 4 h (mouse, lung, 2 ug, BHK-GIPR tumor BALB/c nude mice, i.v., peptide dose 2 µg, 4 h p.i., mean n=5, read-out: Lung uptake): 0.56 %ID/g
